Experimental data taken from article PMC5113775, “Mirror‐Image Packing Provides a Molecular Basis for the Nanomolar Equipotency of Enantiomers of an Experimental Herbicide” (Angewandte Chemie (International Ed. in English), 2016).

Key:
At ΔN IGPD2 construct A = molecular target: T1, At ΔN IGPD2 construct A (Arabidopsis thaliana, UniProt O23346); assay: crystal structure, […] Å; type: binding; details: active site, two manganese ions; racemate
T1 construct: gene HISN5B; N-terminally truncated (delta-N) construct A, longer than construct B; borders only in supplement
T1 sequence (O23346 53-272, stated change not applied): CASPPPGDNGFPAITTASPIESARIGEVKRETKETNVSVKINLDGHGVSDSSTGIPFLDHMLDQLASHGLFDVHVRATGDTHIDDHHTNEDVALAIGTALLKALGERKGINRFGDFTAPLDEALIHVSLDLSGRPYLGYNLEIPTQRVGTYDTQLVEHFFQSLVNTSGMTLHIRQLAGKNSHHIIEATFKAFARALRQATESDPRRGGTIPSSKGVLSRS

At ΔN IGPD2 construct B = molecular target: T2, At ΔN IGPD2 construct B (Arabidopsis thaliana, UniProt O23346); assay: in vitro enzyme inhibition assay; crystal structure; type: biochemical
T2 construct: gene HISN5B; N-terminally truncated (delta-N) construct B, shorter than construct A; borders only in supplement; Mn2+ enzyme; EC 4.2.1.19
T2 sequence (O23346 69-272, stated change not applied): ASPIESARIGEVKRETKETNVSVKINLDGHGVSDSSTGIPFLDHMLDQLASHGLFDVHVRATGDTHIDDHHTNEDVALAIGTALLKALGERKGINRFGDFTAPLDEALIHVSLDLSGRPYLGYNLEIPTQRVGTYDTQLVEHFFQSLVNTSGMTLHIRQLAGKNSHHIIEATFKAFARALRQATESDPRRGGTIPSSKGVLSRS

SMILES | crystal structure, 1.85 Å (At ΔN IGPD2 construct A) | Ki (At ΔN IGPD2 construct B) [nM]
O=P(O)(O)CC(O)Cn1cncn1 (racemic) [C348, 2‐hydroxy‐3‐(1,2,4‐triazol‐1‐yl) propylphosphonate] | grown in the presence of a racemate of C348 and the structure | 
O=P(O)(O)C[C@@H](O)Cn1cncn1 [(S)‐C348, 2‐hydroxy‐3‐(1,2,4‐triazol‐1‐yl) propylphosphonate] |  | 25 ± 3
O=P(O)(O)C[C@H](O)Cn1cncn1 [(R)‐C348, 2‐hydroxy‐3‐(1,2,4‐triazol‐1‐yl) propylphosphonate] |  | 15 ± 5
